Where a name gives a salt, the structure may show the parent alone. Read-outs that look alike come from different tables or passages of the source.
Columns and labels:
Assay in all cases: Cell proliferation assay at 10 μM
[1] = tested on: A375; format: cell-based, human; conditions: for viability at 10 µM: Homo sapiens, read-out: Cell viability observed at 10 μM
Experimental: (§1) The human melanoma cell line A375 and colorectal carcinoma cell line HCT-116 were cultured in Dulbecco's modified Eagle's medium supplemented with 10% fetal bovine serum and 1% Penicillin-Streptomycin. The human leukemia cell line MOLM-14 was cultured in Minimum Essential Medium Alpha Medium supplemented with 10% Fetal Bovine Serum and 1% Penicillin-Streptomycin. All the cell lines were maintained at 37° C. with 5% CO2.
(§2) Briefly, adherent cells, A375 and HCT-116 cells were respectively plated at 800 or 5,000 cells per well onto 96-well plates in 90 μL of media per well and were allowed to grow overnight before the assay.
(§3) Compounds were added at different concentrations to each well, and cell cultures were incubated for 72 h. Vehicle (DMSO or H2O) was used as a control, and all compounds were tested in a constant percentage of vehicle. Cell outgrowth was measured using for adherent cells CellTiter […] Aqueous One Solution Cell Proliferation Assay (Promega) and for cell suspension, Sulforhodamine B colorimetric assay as described in Vichai et al. (Vichai, V. and Kirtikara, K. Nat. Protoc. 2006 (1) 1112-1116). Absorbance was measured using an Infinite F200 Pro or Sunrise TECAN plate reader.
(§4) In each experiment, each point represents the average of two replicates in cell culture.
(§5) Results are presented in Table 1 below for concentrations of 10 μM of tested compounds.

[2] = tested on: HCT-116; format: cell-based; conditions: Homo sapiens, HCT-116, 72 h
Experimental: as §1, §2, §3, §4, §5

[3] = tested on: MOLM-14; format: cell-based, human; conditions: for viability at 10 µM: Homo sapiens, read-out: Cell viability observed at 10 μM
Experimental: as §1
For MOLM-14 cell line, which grows in suspension, 30,000 cells were plated onto 96-well plates immediately before the assay.
as §3, §4, §5

[4] = read-out: Cell viability observed at 10 μM
[5] = A375, 10 μM, 72 h, % of cell viability remaining
[6] = MOLM-14, 10 μM, 72 h, % of cell viability remaining
[7] = A-375, A375, 10 μM, 72 h, % of cell viability remaining
[8] = HCT-116, 10 μM, 72 h, % of cell viability remaining, read-out: Cell viability observed at 10 μM

## CCN(CC)C1CCN(c2cc(-c3ccc4ccccc4c3)nc3ccccc23)CC1 [VI-6, 2-(2-naphtyl)-4-(4-N,N-diethylamino-piperidin-1-yl)quinoline dihydrochloride]
[1]; A-375, 72 h
  viability at 10 µM: < 20%
[2]; [4]
  viability at 10 µM: < 20%
[3]; MOLM-14, 72 h
  viability at 10 µM: < 20%

## CCN(CC)C1CCN(c2cc(-c3ccccc3)nc3cc(Cl)ccc23)CC1 [II-4, 7-chloro-2-phenyl-4-(4-N,N-diethylamino-piperidin-1-yl)quinoline dihydrochloride]
[1]; A-375, 72 h
  viability at 10 µM: < 20%
[2]; [4]
  viability at 10 µM: 20 to 40%
[3]; MOLM-14, 72 h
  viability at 10 µM: 60 to 80%

## CCN(CC)CC1CCN(c2cc(-c3ccccc3)nc3cc(Cl)ccc23)CC1 [XXVI-4, 7-chloro-2-phenyl-4-[4-(N,N-diethylaminomethyl)-piperidin-1-yl]-quinoline hydrochloride salt]
[1]; A-375, 72 h
  viability at 10 µM: > 80%
[2]; [4]
  viability at 10 µM: > 80%
[3]; MOLM-14, 72 h
  viability at 10 µM: > 80%

## CC(c1ccccc1)N1CCC(N(C)c2cc(-c3ccccc3)nc3cc(Cl)ccc23)CC1 (stereo not shown) [XXX-2, 7-chloro-2-phenyl-4-[N-methyl-N—(N-1-phenylethyl-piperidin-4-yl)-amino]quinoline]
[1]; A-375, 72 h
  viability at 10 µM: > 80%
[2]; read-out: Cell viability observed at 10 μM, HCT-116, 10 μM, 72 h, % of cell viability remaining
  viability at 10 µM: > 80%
[3]; MOLM-14, 72 h
  viability at 10 µM: 60 to 80%

## CCN(CC)CC1CCN(c2cc(-c3ccccc3)nc3ccccc23)CC1 [XXVII-2, 2-phenyl-4-[4-(N,N-diethylaminomethyl)-piperidin-1-yl)quinoline hydrochloride salt]
[1]; A-375, 72 h
  viability at 10 µM: 20 to 40%
[2]; [4]
  viability at 10 µM: > 80%
[3]; MOLM-14, 72 h
  viability at 10 µM: 40 to 60%

## CCN(CC)C1CCN(Cc2cc(-c3ccccc3)nc3ccccc23)CC1 [XX-5, 2-phenyl-4-[4-(N,N-diethylamino)-piperidin-1-ylmethyl]quinoline dihydrochloride]
[1]; A-375, 72 h
  viability at 10 µM: 60 to 80%
[2]; [4]
  viability at 10 µM: > 80%
[3]; MOLM-14, 72 h
  viability at 10 µM: 40 to 60%

## c1ccc(-c2cc(N3CCC(N4CCCCC4)CC3)c3ccccc3n2)cc1 [III-4, 2-phenyl-4-([1,4′]-bipiperidin-1′-yl)quinoline dihydrochloride]
[1]; A-375, 72 h
  viability at 10 µM: > 80%
[2]; [4]
  viability at 10 µM: > 80%
[3]; MOLM-14, 72 h
  viability at 10 µM: 60 to 80%

## CCN(CC)C1CCN(c2cc(-c3ccccc3)nc3ccccc23)CC1.Cl.Cl [Compound I-4, 2-phenyl-4-(4-N,N-diethylamino-piperidin-1-yl)quinoline dihydrochloride]
[1]; [5]
  Cell viability observed at 10 μM: − (cell viability %>80)
[3]; [6]
  Cell viability observed at 10 μM: + (cell viability 60>%<80)

## CC(c1cc(-c2ccccc2)nc2ccccc12)N1CCC(N(CCc2ccccc2)Cc2ccccc2)CC1 (stereo not shown) [XXI-4, 2-phenyl-4-{1-{4-[benzyl(phenethyl)amino]-piperidin-1-yl}-eth-1-yl}quinoline dihydrochloride]
[1]; A-375, 72 h
  viability at 10 µM: > 80%
[2]; [4]
  viability at 10 µM: > 80%
[3]; MOLM-14, 72 h
  viability at 10 µM: > 80%

## CC(C)(C)NC1CCN(c2cc(-c3ccccc3)nc3ccccc23)CC1 [IV-2, 2-phenyl-4-(4-N-tert-butylamino-piperidin-1-yl)quinoline dihydrochloride]
[1]; A-375, 72 h
  viability at 10 µM: 40 to 60%
[2]; [4]
  viability at 10 µM: 60 to 80%
[3]; MOLM-14, 72 h
  viability at 10 µM: 20 to 40%

## CN(C)CCN(C)c1cc(-c2ccc3ccccc3c2)nc2ccccc12 [XXXVII-2, N^1,N^1,N^2-trimethyl-N^2-(2-naphthalen-2-yl-quinoline-4-yl)-ethane-1,2-diamine hydrochloride salt]
[1]; A-375, 72 h
  viability at 10 µM: 40 to 60%
[2]; [4]
  viability at 10 µM: > 80%
[3]; MOLM-14, 72 h
  viability at 10 µM: 40 to 60%

## CN(C)CCCNCc1cc(-c2ccccc2)nc2cc(Cl)ccc12 [XLIV-2, N^1,N^1-dimethyl-N^3-(7-chloro-2-phenylquinoline-4-ylmethyl)-propane-1,3-diamine hydrochloride salt]
[1]; A-375, 72 h
  viability at 10 µM: < 20%
[2]; [4]
  viability at 10 µM: < 20%
[3]; MOLM-14, 72 h
  viability at 10 µM: < 20%

## CN(C)CCCNC(=O)c1cc(-c2ccccc2)nc2cc(Cl)ccc12 [XLIII-2, N-[3-(dimethylamino)propyl]-7-chloro-2-phenylquinoline-4-carboxamide hydrochloride salt]
[1]; A-375, 72 h
  viability at 10 µM: < 20%
[2]; [4]
  viability at 10 µM: > 80%
[3]; MOLM-14, 72 h
  viability at 10 µM: 60 to 80%

## CN(C)CCCN(C)c1cc(-c2ccc3ccccc3c2)nc2ccccc12 [XXXIX-2, N^1,N^1,N^3-trimethyl-N^3-[2-(naphthalen-2-yl)-quinoline-4-yl]-propane-1,3-diamine hydrochloride salt]
[1]; A-375, 72 h
  viability at 10 µM: < 20%
[2]; [4]
  viability at 10 µM: < 20%
[3]; MOLM-14, 72 h
  viability at 10 µM: < 20%

## CCN(CC)C1CCN(c2cc(-c3ccc(Cl)cc3)nc3ccccc23)CC1 [Compound X-6, 2-(4-chloro-phenyl)-4-(4-N,N-diethylamino-piperidin-1-yl)quinoline dihydrochloride]
[1]; A-375, 72 h
  viability at 10 µM: < 20%
[2]; [4]
  viability at 10 µM: < 20%
[3]; MOLM-14, 72 h
  viability at 10 µM: 40 to 60%

## CCN(CC)C1CCN(c2cc(-c3ccccc3)nc3ccccc23)CC1 [Compound I-3, 2-phenyl-4-(4-N,N-diethylamino-piperidin-1-yl)quinoline]
[1]; [7]
  viability at 10 µM: > 80%
[2]; [8]
  viability at 10 µM: > 80%
[3]; [6]
  viability at 10 µM: 60 to 80%

## CCN(CC)C1CCN(c2cc(-c3ccc(Br)cc3)nc3ccccc23)CC1 [VIII-6, 2-(4-bromo-phenyl)-4-(4-N,N-diethylamino-piperidin-1-yl)-quinoline dihydrochloride]
[1]; A-375, 72 h
  viability at 10 µM: < 20%
[2]; [8]
  viability at 10 µM: < 20%
[3]; MOLM-14, 72 h
  viability at 10 µM: 20 to 40%

## CC(c1ccccc1)N1CCC(N(C)c2cc(-c3ccccc3)nc3ccccc23)CC1 (stereo not shown) [XXXI-2, 2-phenyl-4-[N-methyl-N—(N-1-phenylethyl-piperidin-4-yl)-amino]quinoline hydrochloride salt]
[1]; [7]
  viability at 10 µM: > 80%
[2]; [8]
  viability at 10 µM: > 80%
[3]; [6]
  viability at 10 µM: > 80%

## c1ccc(-c2cc(N3CCC(N4CCOCC4)CC3)c3ccccc3n2)cc1 [Compound V-2, 2-phenyl-4-[(4-morpholin-4-yl)piperidin-1yl]quinoline dihydrochloride]
[1]; A-375, 72 h
  viability at 10 µM: > 80%
[2]; [4]
  viability at 10 µM: > 80%
[3]; MOLM-14, 72 h
  viability at 10 µM: 60 to 80%

## CC(NC1CCN(Cc2ccccc2)CC1)c1cc(-c2ccccc2)nc2ccccc12 (stereo not shown) [XXXIV-2, 2-phenyl-4-{1-[(N-benzyl-piperidin-4-yl)amino]-eth-1-yl}quinoline hydrochloride salt]
[1]; A-375, 72 h
  viability at 10 µM: < 20%
[2]; [4]
  viability at 10 µM: 20 to 40%
[3]; MOLM-14, 72 h
  viability at 10 µM: 40 to 60%

## CC(NC1CCN(Cc2ccccc2)CC1)c1cc(-c2ccccc2)nc2cc(Cl)ccc12 (stereo not shown) [XXXV-2, 7-chloro-2-phenyl-4-{1-[(N-benzyl-piperidin-4-yl)amino]-eth-1-yl}quinoline hydrochloride salt]
[1]; A-375, 72 h
  viability at 10 µM: > 80%
[2]; [4]
  viability at 10 µM: > 80%
[3]; MOLM-14, 72 h
  viability at 10 µM: > 80%

## CN(c1cc(-c2ccccc2)nc2cc(Cl)ccc12)C1CCN(Cc2ccccc2)CC1 [XXIX-2, 7-chloro-2-phenyl-4-[N-methyl-N—(N-benzylpiperidin-4-yl)-amino]quinoline hydrochloride salt]
[1]; [7]
  viability at 10 µM: > 80%
[2]; [8]
  viability at 10 µM: > 80%
[3]; [6]
  viability at 10 µM: > 80%

## O=C(NC1CCN(Cc2ccccc2)CC1)c1cc(-c2ccccc2)nc2cc(Cl)ccc12 [XXXII-2, N-(1-benzylpiperidin-4-yl)-7-chloro-2-phenylquinoline-4-carboxamide hydrochloride salt]
[1]; A-375, 72 h
  viability at 10 µM: > 80%
[2]; [4]
  viability at 10 µM: > 80%
[3]; MOLM-14, 72 h
  viability at 10 µM: 40 to 60%

## CCN(CC)C1CCN(C(=O)c2cc(-c3ccccc3)nc3ccccc23)CC1 [XVIII-2, 4-[4-(N,N-diethylamino)piperidin-1-ylcarbonyl]-2-phenyl-quinoline dihydrochloride]
[1]; [7]
  viability at 10 µM: > 80%
[2]; [8]
  viability at 10 µM: > 80%
[3]; [6]
  viability at 10 µM: > 80%

## CN(C)CCCNc1cc(-c2ccccc2)nc2ccccc12.Cl.Cl [XLI-2, N^1,N^1-dimethyl-N^3-(2-phenylquinoline-4-yl)propane-1,3-diamine hydrochloride salt]
[1]; [5]
  Cell viability observed at 10 μM: ++++ (cell viability %<20)
[3]; [6]
  Cell viability observed at 10 μM: ++++ (cell viability %<20)

## CN(C)CCN(C)Cc1cc(-c2ccccc2)nc2cc(Cl)ccc12 [XXXVIII-2, N^1,N^1,N^2-trimethyl-N^2-(2-phenyl-7-chloro-quinoline-4-ylmethyl)-ethane-1,2-diamine hydrochloride salt]
[1]; A-375, 72 h
  viability at 10 µM: < 20%
[2]; [4]
  viability at 10 µM: < 20%
[3]; MOLM-14, 72 h
  viability at 10 µM: 40 to 60%
